Reference: patent US7947720B2, “3,4-di-substituted cyclobutene-1,2-diones as CXC-chemokine receptor ligands” (Schering Corporation, priority 2001, dated 2011)

Target: T1, hCXCR2-CHO overexpressing membranes (Homo sapiens, UniProt P25025)
T1 construct: purchased Biosignal; host or cells: CHO cells (membranes)
T1 sequence (P25025 1-360): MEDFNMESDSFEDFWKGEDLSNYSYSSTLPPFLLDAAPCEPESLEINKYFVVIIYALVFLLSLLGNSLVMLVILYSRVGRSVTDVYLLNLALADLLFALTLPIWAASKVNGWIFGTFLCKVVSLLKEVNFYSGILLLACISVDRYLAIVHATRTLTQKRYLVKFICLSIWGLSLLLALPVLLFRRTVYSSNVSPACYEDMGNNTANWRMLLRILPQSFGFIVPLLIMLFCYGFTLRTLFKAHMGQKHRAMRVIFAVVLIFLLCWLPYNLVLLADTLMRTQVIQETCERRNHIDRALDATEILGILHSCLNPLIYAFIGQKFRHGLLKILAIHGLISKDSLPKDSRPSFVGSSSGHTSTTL
Assay: CXCR2 SPA Assay
Assay type: binding
Settings: [125I]-IL-8 0.1 nM
Protocol: For each well of a 96 well plate, a reaction mixture of 4 μg hCXCR2-CHO overexpressing membranes (Biosignal) and 200 μg/well WGA-SPA beads (Amersham) in 100 μl was prepared in CXCR2 assay buffer (25 mM HEPES, pH 7.4, 2 mM CaCl2, 1 mM MgCl2). A 0.4 nM stock of ligand, [125I]-IL-8 (NEN), was prepared in the CXCR2 assay buffer. 20× stock solutions of test compounds were prepared in DMSO (Sigma). A 6× stock solution of GRO-α (R&D) was prepared in CXCR2 assay buffer. The above solutions were added to a 96-well assay plate (PerkinElmer or Corning) as follows: 10 μl test compound or DMSO, 40 ul CXCR2 assay buffer or GRO-α stock, 100 μl of reaction mixture, 50 μl of ligand stock (Final [Ligand]=0.1 nM). When 40× stock solutions of test compounds in DMSO were prepared, then the above protocol was used except instead 5 μl test compound or DMSO and 45 μl CXCR2 assay buffer were used. The assay plates were shaken for 5 minutes on a plate shaker, then incubated for 2-8 hours before cpm/well were determined in Microbeta Trilux counter (PerkinElmer). % Inhibition of total binding minus non-specific binding (250 nM Gro-α or 50 μM antagonist) was determined and IC50 values calculated.

- Ki: 0.8 nM
Structure (SMILES): CC[C@@H](Nc1c(Nc2cccc(C(=O)N(C)C)c2O)c(=O)c1=O)c1cc(C(C)C)co1 [Example 360.106]
